Data as given in US8592600B2, “Solid state forms of racemic ilaprazole” (Il Yang Pharmaceutical Company, Ltd., priority 2006, dated 2013).
“Also recorded” adds a separate entry of the source.

Key:
gastric acid = assay: Phase 1 and Phase 2 clinical studies conducted with ilaprazole; type: in vivo, human
[1] = Solid state stability of the crystalline forms; type: physicochemical
[2] = Bioavailability study of ilaprazole from 40-mg delayed-release tablets, plasma pharmacokinetics; type: in vivo, human; settings: for AUC lower than Form A, point estimate / Cmax lower than Form A, point estimate: ANOVA point estimate, relative to 40-mg tablet as Form A; for half-life, relative: humans, Forms A, B, F compared; for mean AUC∞ lower than value observed for Form A / mean Cmax lower than value observed for Form A: mean values; for mean AUC∞ lower than value observed for Form A / mean Cmax lower than value observed for Form A / mean AUC, rank among forms / mean Cmax, rank among forms / mean apparent oral clearance, rank among forms / mean apparent volume of distribution, rank among forms: single 40 mg oral dose; for t1/2z, harmonic mean / tlag, Mean / tmax, Mean: single 5 mg oral dose (table title; text: 40 mg delayed-release tablet); for lower bound of 90% confidence interval for ratio of central values, AUC / lower bound of 90% confidence interval for ratio of central values, AUC∞ / lower bound of 90% confidence interval for ratio of central values, Cmax: relative to Form A (Regimen A), bioequivalence limit 0.80; for AUCt, Point Estimate (ratio of central values) vs. Regimen A / AUC∞, Point Estimate (ratio of central values) vs. Regimen A / Cmax, Point Estimate (ratio of central values) vs. Regimen A: relative to Regimen A (Form A), Regimen B = Form B, Regimen C = Form F, single 40-mg delayed-release tablet
From the text: The bioavailability of ilaprazole from delayed-release tablets containing racemic ilaprazole, Form A, F, and B. This study were to assessed the bioavailability of ilaprazole from ilaprazole 40-mg delayed-release tablets manufactured as described in Example 8.
The subjects were randomly assigned in equal numbers to one of three sequence groups (Table 32).
Subjects received all regimens in a crossover fashion, according to the sequence group to which they were randomized. For each period, confinement began on Day 1 and ended on Day 2 after all procedures had been completed. There was a washout interval of at least 5 days between the doses of each period. Each subject received 3 doses of racemic ilaprazole 40 mg, each dose administered with 240 mL of water. On Day 1 of each period, subjects received the regimen to which they had been assigned at approximately 0800 hours. Subjects were fasted for 10 hours prior to dosing and remained fasted until 4 hours postdose when a standardized lunch was served.
Ilaprazole, ilaprazole sulfide and ilaprazole sulfone plasma concentrations were determined from 3 mL blood samples collected starting on Day 1 at 0 hour (predose), and 0.5, 1, 1.5, 2, 3, 4, 5, 6, 8, 10, 12, 14, 16, 20, 24, 28 and 32 hours postdose in each period. Plasma concentrations of ilaprazole were determined using a validated LC-MS/MS method at PPD (Middleton, Wis.). The lower limit of quantitation (LLOQ) for ilaprazole and its metabolites was 5.00 ng/mL with a 0.100 mL aliquot of plasma.
Pharmacokinetic parameters for ilaprazole were estimated using standard noncompartmental methods with WinNonlin Professional Version 4.1 (Pharsight Co., Mountain View, Calif.).
Pharmacokinetic endpoints included time to reach the first quantifiable concentration (tlag), time to reach the peak concentration (tmax), the peak plasma concentration (Cmax), area under the plasma concentration versus time curve (AUC) from time zero to the last quantifiable concentration (AUCt) and to infinity (AUC∞), terminal-phase elimination half-life (t1/2z), apparent oral clearance (CL/F) and apparent volume of distribution (Vz/F).
For ilaprazole tlag, tmax, and the natural logarithms of Cmax and AUCs, an analyses of variance (ANOVA) model was fitted that included fixed effects of sequence, period, and crystal form as well as a random effect of subject nested within sequence. Pairwise comparisons between racemic ilaprazole, Forms B or F and Form A, were conducted. Ninety percent confidence intervals for relative bioavailability between regimens were computed.

[3] = Dynamic Vapor Sorption/Desorption (DVS); type: physicochemical; settings: for weight loss at 5% RH / weight loss from 95 to 5% RH / weight gain from 5 to 95% RH: DVS isotherm; for weight loss from 95 to 5% RH: desorption; for weight gain from 5 to 95% RH: sorption
Protocol: Dynamic Vapor Sorption/Desorption (DVS): Data were collected on a VTI SGA-100 moisture balance system. For sorption isotherms, a sorption range of 5 to 95% relative humidity (RH) and a desorption range of 95 to 5% RH in 10% RH increments were used for analysis. The samples were not dried prior to analysis. Equilibrium criteria used for analysis were less than 0.0100% weight change in 5 minutes with a maximum equilibration time of 3 hours if the weight criterion was not met. Data were not corrected for the initial moisture content of the samples.

[4] = Dissolution rate of delayed release tablets, 40 mg (USP <711>, Delayed Release Method A); type: physicochemical; settings: 40 mg tablet, dissolution buffer
Protocol: Delayed release tablets containing 40 mg racemic ilaprazole, Form A, B, or F, were prepared and the dissolution rates of the tablets studied. The tablets were identical, with the exception of the crystalline form of ilaprazole. The qualitative and quantitative compositions of racemic ilaprazole delayed release tablets, 40 mg (inclusive of the compositions made using Forms A, B, and F) are described in Table 30. The dissolution rate procedure was modified to be consistent with USP <711>, Delayed Release Method A and to change the UV detection wavelength in the acid stage of the test. For the acid stage, a wavelength of 340 nm was used, and for the buffer stage, a wavelength of 306 nm was used. The desired dissolution profile was Q=70% in 60 minutes.

[5] = Solubility of racemic ilaprazole forms in various ethanol solutions (100-50% ethanol) with various apparent pHs, 1 hour; type: physicochemical; settings: comparison between Forms A, B, F
Protocol: The solubility of racemic ilaprazole, Forms A, B, and F, were analyzed by exposing them to various ethanol solutions having various pHs for 1 hour. Duplicate analysis was performed for each sample on a second day. The solubility in 100% ethanol (with no pH adjustment) is shown in the first column. Various other aqueous solutions (87.5%, 75%, 62.5%, and 50% ethanol) with varying apparent pHs (7, 8, 9, 10, and 11) were also evaluated. All of the values below are the average of two duplicate preparations analyzed on different days.

[6] = plasma ilaprazole, healthy adult subjects, fasted
[7] = plasma ilaprazole, healthy adult subjects, single 40 mg oral dose (table title; text: 40 mg delayed-release tablet), fasted
[8] = human, plasma, po, 40 mg, plasma ilaprazole, healthy adult subjects, single 40 mg oral dose (table title; text: 40 mg delayed-release tablet), fasted

Compound | AUC lower than Form A, point estimate [2] | Cmax lower than Form A, point estimate [2] | half-life, relative [2] | mean AUC∞ lower than value observed for Form A [2] | mean Cmax lower than value observed for Form A [2] | t1/2z, harmonic mean [2, 6] | tlag, Mean [2, 6] | tmax, Mean [2, 6] | AUCt, Mean [2, 7] | AUC∞, Mean [2, 7] | CL/F, Mean [2, 7] | Cmax, Mean [2, 7] | t1/2z, arithmetic mean [2, 7] | lower bound of 90% confidence interval for ratio of central values, AUC [2] | lower bound of 90% confidence interval for ratio of central values, AUC∞ [2] | hygroscopicity [3] | weight loss at 5% RH [3] | weight loss from 95 to 5% RH [3] | weight gain from 5 to 95% RH [3] | relative solubility in aqueous solutions/solvents [5] | further results
COc1ccnc(C[S+]([O-])c2nc3cc(-n4cccc4)ccc3[nH]2)c1C (stereo not shown) [ilaprazole, 2[[(4-methoxy-3-methyl-2-pyridinyl)-methyl]sulfinyl]-5-(1H-pyrrol-1-yl) 1H-Benzimidazole] |  |  |  |  |  |  |  |  |  |  |  |  |  |  |  |  |  |  |  |  | suppression of gastric acid (gastric acid; Phase 1 clinical studies, at the doses studied): suppression of gastric acid occurs over a 24-hour period; healing of acid-related gastric and duodenal ulcers (gastric acid; Phase 2 clinical studies): promoted rapid healing; symptomatic relief (gastric acid; Phase 2 clinical studies, patients with gastric-acid related disorders): provided symptomatic relief
COc1ccnc(C[S+]([O-])c2nc3cc(-n4cccc4)ccc3[nH]2)c1C (racemic) [Form B, 2[[(4-methoxy-3-methyl-2-pyridinyl)-methyl]sulfinyl]-5-(1H-pyrrol-1-yl) 1H-Benzimidazole] | ~24% | approximately 17% | greater half-life than Form A | ~25% | approximately 20% | (7.76) h | 1.22 h | 3.50 h | 3812.50 ng·h/mL | 4087.99 ng·h/mL | 11.70 L/h | 522.51 ng/mL | 9.48 h | < 0.80 | < 0.80 | not hygroscopic | 0.03% | 0.00% | 0.04% | A<F<B; also recorded: more soluble in aqueous solvents than Form A | long term stability or shelf life [1]: good long term stability or shelf life; lower bound of 90% confidence interval for ratio of central values, Cmax [2]: < 0.80; AUCt, Point Estimate (ratio of central values) vs. Regimen A [2]: 0.7630; AUC∞, Point Estimate (ratio of central values) vs. Regimen A [2]: 0.7609; Cmax, Point Estimate (ratio of central values) vs. Regimen A [2]: 0.8292; mean AUC, rank among forms [2]: lowest; mean Cmax, rank among forms [2]: lowest; mean apparent oral clearance, rank among forms [2]: highest; mean apparent volume of distribution, rank among forms [2]: highest; dissolution of delayed release tablet, relative [4]: relatively slower dissolution profile; also recorded: slower to wet and dissolve in the dissolution buffer than Form A and Form F

Now from value to compound, other results behind:

AUC lower than Form A, point estimate [2] | Cmax lower than Form A, point estimate [2] | half-life, relative [2] | mean AUC∞ lower than value observed for Form A [2] | mean Cmax lower than value observed for Form A [2] | t1/2z, harmonic mean [2, 6] | tlag, Mean [2, 6] | tmax, Mean [2, 6] | AUCt, Mean [2, 7] | AUC∞, Mean [2, 7] | CL/F, Mean [2, 7] | Cmax, Mean [2, 7] | t1/2z, arithmetic mean [2, 7] | lower bound of 90% confidence interval for ratio of central values, AUC [2] | lower bound of 90% confidence interval for ratio of central values, AUC∞ [2] | hygroscopicity [3] | weight loss at 5% RH [3] | weight loss from 95 to 5% RH [3] | weight gain from 5 to 95% RH [3] | Compound | relative solubility in aqueous solutions/solvents [5] | further results
 |  |  |  |  |  |  |  |  |  |  |  |  |  |  |  | 0.1% | 4.2% | 4.2% | COc1ccnc(C[S+]([O-])c2nc3cc(-n4cccc4)ccc3[nH]2)c1C (racemic) [Form I, 2[[(4-methoxy-3-methyl-2-pyridinyl)-methyl]sulfinyl]-5-(1H-pyrrol-1-yl) 1H-Benzimidazole] |  | 
 |  |  |  |  | (6.95) h | 1.16 h |  |  |  | 9.34 L/h |  | 8.89 h |  |  | not hygroscopic | 0.06% | 0.13% | 0.10% | COc1ccnc(C[S+]([O-])c2nc3cc(-n4cccc4)ccc3[nH]2)c1C (racemic) [Form A, 2[[(4-methoxy-3-methyl-2-pyridinyl)-methyl]sulfinyl]-5-(1H-pyrrol-1-yl) 1H-Benzimidazole] | A<F<B; also recorded: least soluble in aqueous solutions | thermodynamic stability among crystalline forms [1]: most thermodynamically stable; AUC(0-inf) [2, 8]: 5450 ng·h/mL; AUC(0-t) [2, 8]: 5070 ng·h/mL; Cmax [2, 8]: 652 ng/mL; Tmax [2, 8]: 4.14 h; Vd/F ([2]; human, plasma, po, 40 mg, plasma ilaprazole, healthy adult subjects, single 40 mg oral dose (table title; text: 40 mg delayed-release tablet), fasted, read-out: Vz/F, Mean): 112 L; mean AUC, rank among forms [2]: highest; mean Cmax, rank among forms [2]: highest; mean apparent oral clearance, rank among forms [2]: lowest; mean apparent volume of distribution, rank among forms [2]: lowest
15-17% | approximately 15% | longest half-life | ~14% | approximately 15% | (7.29) h | 1.18 h | 4.01 h | 4256.66 ng·h/mL | 4672.37 ng·h/mL | 11.29 L/h | 554.18 ng/mL | 9.66 h | < 0.80 | < 0.80 | slightly hygroscopic | 0.04% | 1.33% | 1.05% | COc1ccnc(C[S+]([O-])c2nc3cc(-n4cccc4)ccc3[nH]2)c1C (racemic) [Form F, 2[[(4-methoxy-3-methyl-2-pyridinyl)-methyl]sulfinyl]-5-(1H-pyrrol-1-yl) 1H-Benzimidazole] | A<F<B; also recorded: more soluble in aqueous solvents than Form A | lower bound of 90% confidence interval for ratio of central values, Cmax [2]: < 0.80; AUCt, Point Estimate (ratio of central values) vs. Regimen A [2]: 0.8288; AUC∞, Point Estimate (ratio of central values) vs. Regimen A [2]: 0.8456; Cmax, Point Estimate (ratio of central values) vs. Regimen A [2]: 0.8456
